Read-outs that look alike come from different tables or passages of the source.
Legend:
[1] = set-up: method as in Zhang et al., 2020; conditions: oral, ref Zhang et al., 2020, cited from earlier work
[2] = Stability of orelabrutinib in rat plasma under storage and analytical conditions; assay type: in vitro ADME; conditions: for Measured concentration, Mean ± SD / RE (relative error vs nominal): n = 5
Method: To investigate the stability of orelabrutinib in rat plasma, QC plasma samples of three concentrations were placed in different environments to examine the short-term, long-term, three freeze-thaw cycles and stability at 10°C. Short-term stability was determined by placing plasma samples at room temperature for at least 3 h. Long-term stability was determined by testing plasma samples after 21 days of storage at −80°C. The stability of the plasma samples was evaluated by measuring the stability of three freeze-thaw cycles from freezing (−80°C) to thawing (room temperature) three times. In addition, the stability was determined by storing the prepared plasma samples in an autosampler (10°C) for 4 h.

[3] = Pharmacokinetic study in rats after single oral dose (UPLC-MS/MS, non-compartmental analysis); assay type: in vivo; conditions: male, Sprague-Dawley, rat, plasma, single oral dose of 10 mg/kg, n = 6, mean ± SD
Excerpt: Six male Sprague-Dawley (SD) Rats (weighing 250 ± 20 g) were obtained from the Laboratory Animal Center of The First Affiliated Hospital of Wenzhou Medical University (Zhejiang, China). They were housed in an environmentally controlled rearing chamber and given food and water that met the standard for 1 week. The animal experiment was approved by the Ethics Committee for the Protection and Use of Laboratory Animals of The First Affiliated Hospital of Wenzhou Medical University (Zhejiang, China).
The rats were fasted for 12 h before the start of the experiment and were given free access to water. Oral gavage was administered to rats at a dose of 10 mg/kg of orelabrutinib dissolved in 0.5% sodium carboxymethylcellulose (CMC-Na). Blood was collected at different collection points at 0.333, 0.667, 1, 1.5, 2, 3, 4, 6, 8, 12, 24 and 48 h after administration. After collected, blood in centrifuge tube was centrifuged for 10 min at 13,000 × g at room temperature, and 100 μl of plasma was separated and stored at −80°C prior to analysis. The concentrations of the analyte were determined using this validated UPLC-MS/MS method, while the non-compartmental model was analyzed using DAS 2.0 software (Drug and Statistical Software of the Shanghai Mathematical Pharmacology Professional Committee, China), and pharmacokinetic parameters were calculated.

[4] = prepared plasma samples, autosampler 10°C for 4 h, nominal 2 ng/ml
[5] = prepared plasma samples, autosampler 10°C for 4 h, nominal 200 ng/ml
[6] = prepared plasma samples, autosampler 10°C for 4 h, nominal 1600 ng/ml
[7] = rat plasma, 21 days at −80°C, nominal 2 ng/ml
[8] = rat plasma, 21 days at −80°C, nominal 200 ng/ml
[9] = rat plasma, 21 days at −80°C, nominal 1600 ng/ml
[10] = rat plasma, room temperature at least 3 h, nominal 2 ng/ml
[11] = rat plasma, room temperature at least 3 h, nominal 200 ng/ml
[12] = rat plasma, three freeze-thaw cycles (−80°C to room temperature), nominal 2 ng/ml
[13] = rat plasma, three freeze-thaw cycles (−80°C to room temperature), nominal 200 ng/ml
[14] = rat plasma, three freeze-thaw cycles (−80°C to room temperature), nominal 1600 ng/ml

## C=CC(=O)N1CCC(c2ccc(C(N)=O)c(-c3ccc(Oc4ccccc4)cc3)n2)CC1 [Orelabrutinib]
[1]; 64 healthy subjects, single 20-400 mg or multiple doses for 14 days
  Dose dependence of AUC and Cmax: increased proportionally
[1]; healthy subjects, dose not stated
  Cmax: ~300 ng/mL
[2]; [4]
  Measured concentration, Mean ± SD: 2.0 ± 0.1 ng/mL
  RE (relative error vs nominal): −0.2%
[2]; [5]
  Measured concentration, Mean ± SD: 208.0 ± 5.3 ng/mL
  RE (relative error vs nominal): 4.0%
[2]; [6]
  Measured concentration, Mean ± SD: 1649.2 ± 25.3 ng/mL
  RE (relative error vs nominal): 3.1%
[2]; [7]
  Measured concentration, Mean ± SD: 2.1 ± 0.1 ng/mL
  RE (relative error vs nominal): 5.4%
[2]; [8]
  Measured concentration, Mean ± SD: 212.6 ± 7.3 ng/mL
  RE (relative error vs nominal): 6.3%
[2]; [9]
  Measured concentration, Mean ± SD: 1389.2 ± 147.3 ng/mL
  RE (relative error vs nominal): −13.2%
[2]; [10]
  Measured concentration, Mean ± SD: 2.1 ± 0.1 ng/mL
  RE (relative error vs nominal): 6.1%
[2]; [11]
  Measured concentration, Mean ± SD: 199.3 ± 4.8 ng/mL
  RE (relative error vs nominal): −0.4%
[2]; rat plasma, room temperature at least 3 h, nominal 1600 ng/ml
  Measured concentration, Mean ± SD: 1603.9 ± 24.6 ng/mL
[2]; [12]
  Measured concentration, Mean ± SD: 2.0 ± 0.1 ng/mL
  RE (relative error vs nominal): 1.0%
[2]; [13]
  Measured concentration, Mean ± SD: 220.3 ± 8.5 ng/mL
  RE (relative error vs nominal): 10.2%
[2]; [14]
  Measured concentration, Mean ± SD: 1773.7 ± 57.6 ng/mL
  RE (relative error vs nominal): 10.9%
[2]; rat plasma, room temperature, 10°C, three freeze (−80°C)/thaw (RT) cycles, −80°C for 21 days
  Stability in plasma samples (in words): stable
[3]
  AUC(0-inf): 3600 ± 1540 ng·h/mL
  AUC(0-t): 3590 ± 1540 ng·h/mL
  Cmax: 1930 ± 1030 ng/mL
  Tmax: 0.56 ± 0.17 h
  half-life: 8.25 ± 5.64 h
